Assay results: patent publication US20230346820A1, “METHODS AND COMPOSITIONS FOR THE TREATMENT OF SARS-COV-2” (priority 2020, published 2023)
Counter-ions that a name gives are not always drawn. Like-named read-outs stand apart in the source and are kept apart here.

Key:
[1] = tested on: SARS-CoV-2
[2] = Pharmacokinetic studies in Syrian hamsters; type: in vivo; settings: single 500 mg/kg PO dose, hamster plasma
Experimental: Pharmacokinetic Studies. Pharmacokinetic studies were conducted at Scripps Research Institute's Animal Models Core in accordance with IACUC guidelines (IACUC Protocol #09-0004-5). Eight-week old male Syrian Hamsters (Charles River) (three per group) were dosed PO as indicated for each compound and formulation. Plasma concentration of each test article was monitored up to 48 h. Nelfinavir was formulated in 10% DMSO/90% corn oil and MK-4482 was formulated in 10% PEG400/2.5% Cremaphor RH40 for both pharmacokinetic and efficacy studies.

[3] = in vitro; settings: human
[4] = tested on: SARS-CoV-2; test: microbe, parasite or virus in culture
[5] = tested on: SARS-CoV-2; test: Golden Syrian Hamster SARS-CoV-2 efficacy model; type: in vivo; settings: for live viral titers in the lungs: day 5, plaque assay
[6] = tested on: SARS-CoV-2; test: microbe, parasite or virus in culture; settings: Severe acute respiratory syndrome coronavirus 2, Calu-3, read-out: Calu-3 SARS-CoV-2 EC50
[7] = in vivo; cited from earlier work
[8] = tested on: HeLa-ACE2 cells; settings: human
[9] = COVID-19 patients; shortened from 15; cited from earlier work
[10] = tested on: SARS-CoV-2; test: Time of addition (TOA) assay in HeLa-ACE2 cells; type: cell-based; settings: for activity when treatment initiated at 1 hpi: 10 μM, HeLa-ACE2, time course 4 to 24 hpi
[11] = human, oral; cited from earlier work
[12] = tested on: SARS-CoV-2; test: SARS-CoV-2 primary ALI HBEC model; type: cell-based; settings: apical washes 72 hpi
Experimental: SARS-CoV-2 primary ALI HBEC model. Normal primary human bronchial epithelial cells (HBECs) (Lonza) were cultured in Millicell-96 cell culture insert plates with 1 μm PET filters (Sigma) at an air liquid interface for at least 4 weeks using PneumaCult™-ALI Medium (Stemcell Technologies). Briefly, the HBECs were first expanded in cell culture flasks before seeding 10,000 cells per well submerged in PneumaCult™-Ex Plus Medium. After 1 week, the cells were switched into PneumaCult™-ALI Medium and medium was removed from the apical surface. The air liquid interface was maintained, and the medium exchanged every 2-3 days for at least 4 weeks to allow for differentiation of the cells. Prior to infection, the apical surface was rinsed once with DPBS and compounds were added to the basolateral chamber. 20,000 PFU SARS-CoV-2 strain USA-WA1/2020 were added to the apical surface in 50 μL PBS and allowed to incubate for 2 h. The inoculum was then removed, and the cells rinsed once with DPBS. The medium was exchanged, and fresh compound added at 24 and 48 h post-infection. Apical washes were collected at 72 h post-infection by adding 100 μL DPBS to the apical surface for 15 minutes. RNA was isolated from the apical washes using the PureLink™ Pro 96 Viral RNA/DNA Purification Kit (Thermo Fisher) and analyzed for viral RNA levels by RT-qPCR using the SuperScript™ III Platinum™ One-Step qRT-PCR Kit (Thermo Fisher) and the 2019-nCoV N1 CDC Primers and Probe set (Integrated DNA Technologies). A standard curve was generated by isolating RNA from serial dilutions of the stock virus and used to determine the PFU equivalents/mL for each sample. The viral load reductions were then determined for each experimental compound treatment compared to the neutral DMSO control and plotted in log scale. Cytotoxicity was assessed by measuring LDH activity in the basolateral media using a Cytotoxicity Detection kit (LDH) (Sigma) following the manufacturer's instructions. […] Technical triplicates were run for both antiviral and cytotoxicity readouts. […]

[13] = tested on: HeLa-ACE2 cells; test: cells; type: cell-based, human; settings: Homo sapiens, HeLa-ACE2, read-out: HeLa-ACE-2 EC50 [μM] (Geomeans, n ≥ 2)
[14] = tested on: SARS-CoV-2; test: Checkerboard synergy study with remdesivir (ZIP model, synergyfinder); type: cell-based
[15] = tested on: SARS-CoV-2; remark: listed apart in the source
[16] = dog, oral; cited from earlier work
[17] = mouse, cited from earlier work
[18] = rat, oral; cited from earlier work
[19] = CC50 [μM] (Geomeans, n ≥ 2 except where indicated: *n = 1)
[20] = Severe acute respiratory syndrome coronavirus 2, HeLa-ACE2, 24 h, read-out: CoV-2 EC50 [μM] (Geomeans, n ≥ 2)
[21] = Severe acute respiratory syndrome coronavirus 2, HeLa-ACE2, read-out: SARS CoV-2 EC50 (μM)
[22] = Severe acute respiratory syndrome coronavirus 2, HeLa-ACE2, read-out: SARS-CoV-2 EC50

Structure (SMILES) | HeLa-ACE2 CC50/CoV-2 EC50 [1] | CC50 [3, 19] | EC50 [4, 20] | CC50 ([3]; Uninfected HeLa-ACE2 CC50 (μM)) | EC50 [13] | EC50 [4, 21] | Synergy score with remdesivir (δ) ([14]; Table 3) | activity in Calu-3 infection assay [15] | other results
CC(C)C(=O)OC[C@H]1O[C@@H](n2ccc(NO)nc2=O)[C@H](O)[C@@H]1O [MK-4482/EIDD-2801/Molnupiravir, Molnupiravir] | >4.21 | > 39.8 µM | > 9.45 µM | – | – | – | – | – | activity in HeLa-ACE2 infection assay [1]: not active; time over HeLa-ACE2 and Calu-3 EC50 [2]: ≥ 7 h; viral reduction compared to vehicle control ([5]; 50 mg/kg PO BID, day 5): 99%; live viral titers in the lungs ([5]; 150 mg/kg PO BID): undetectable; host immune response (RNA Seq on hamster lungs) ([5]; 500 mg/kg PO BID): near-complete protection from host immune response; live viral titers in the lungs ([5]; 500 mg/kg PO BID): undetectable; lung histological examination ([5]; MK-4482-treated hamsters vs vehicle): protected
CCC(CC)COC(=O)[C@H](C)N[P@](=O)(OC[C@H]1O[C@@](C#N)(c2ccc3c(N)ncnn23)[C@H](O)[C@@H]1O)Oc1ccccc1 [Remdesivir] | 78.7 | – | 0.127 µM | > 8.46 µM | > 9.6 µM | 0.127 µM | – | – | EC50 [6]: 444 nM; increase in EC50 from MOI=1 to MOI=26 [1]: 2.7 fold; EC50 ([1]; read-out: SARS-CoV-2 EC50): 300 nM; mortality of hospitalized COVID-19 patients [7]: failed to reduce mortality; CC50 [8]: 9.97 µM; median time to recovery [9]: 11 days; activity when treatment initiated at 1 hpi [10]: effectively blocked the infection; CC50 ([3]; uninfected HeLa-ACE2 CC50): > 40 µM; Cmax [11]: ~5000 nM; t1/2 [11]: ~1 h (human oral)(15); viral replication in ALI-HBECs [12]: inhibited viral replication; EC50 [4, 22]: 0.194 ± 0.02 µM
Cc1cccc(/C=N/Nc2cc(N3CCOCC3)nc(OCCc3ccccn3)n2)c1 [Apilimod] | >4353.33 | > 27.8 µM | < 0.006 µM | > 27.8 µM | > 9.6 µM | < 0.006 µM | 3.57 | not active | interaction with remdesivir [14]: additive; increase in EC50 from MOI=1 to MOI=26 [1]: 3.7 fold; classification as entry inhibitor in HeLa-ACE2 cells [10]: entry inhibitors; activity when treatment initiated at 1 hpi [10]: Loss of activity; CC50 ([3]; uninfected HeLa-ACE2 CC50): > 40 µM; Cmax [11]: ~600 nM; t1/2 [11]: ~3 h (human, oral)(27); viral replication in ALI-HBECs [12]: did not; EC50 [4, 22]: 0.184 µM
CCN(CCO)CCCC(C)Nc1ccnc2cc(Cl)ccc12 (centres unmarked) [hydroxychloroquine, nasal, hydroxychloroquine] | >40.04 | > 18.3 µM | 0.458 µM | > 18.3 µM | – | 0.458 µM | −1.572 | not active | mortality of hospitalized COVID-19 patients [7]: failed to reduce mortality; classification as entry inhibitor in HeLa-ACE2 cells [10]: entry inhibitors; activity when treatment initiated at 1 hpi [10]: Loss of activity; Cmax [11]: ~1700 nM; t1/2 [11]: ~55 h (human oral)(18)
O=S(=O)(Nc1ccc(CCNC[C@H](O)c2cccnc2)cc1)c1ccc(-c2nc(-c3ccc(C(F)(F)F)cc3)cs2)cc1 [L 796568] | 5.28 | 5.51 µM | 1.04 µM | 5.51 µM | 3.14 µM | 1.04 µM | – | – | Cmax [16]: ~300 nM; t1/2 [16]: ~14 h (dog, oral)(32)
CCN1CCC(c2cc(C)c3nc(-c4cc5c(C)nc(C)cn5n4)cc(=O)n3c2)CC1 [SMN-C3] | 5.12 | 7.16 µM | 1.4 µM | 7.16 µM | > 8.14 µM | 1.4 µM | −0.37 | – | Synergy score with remdesivir (δ) ([14]; Table 1, ZIP model, δ>10 synergy, δ<−10 antagonism, between additive): −0.365; Cmax ([17]; oral): ~2000 nM
CC[C@H]1OC(=O)[C@H](C)[C@@H](O[C@H]2C[C@@](C)(OC)[C@@H](O)[C@H](C)O2)[C@H](C)[C@@H](O[C@@H]2O[C@H](C)C[C@H](N(C)C)[C@H]2O)[C@](C)(O)C[C@@H](C)CN(C)[C@H](C)[C@@H](O)[C@]1(C)O [azithromycin] | – | – | – | – | – | – | – | not active | classification as entry inhibitor in HeLa-ACE2 cells [10]: entry inhibitors
NCCc1cn(S(=O)(=O)c2c(Cl)nc3sccn23)c2ccccc12 [SAX-187] | 4.02 | 7.43 µM | 1.85 µM | 7.43 µM | > 9.37 µM | 1.85 µM | – | – | Cmax [18]: 400 nM; t1/2 [18]: ~3 h (rat, oral)(39)
Cc1c(O)cccc1C(=O)N[C@@H](CSc1ccccc1)[C@H](O)CN1C[C@H]2CCCC[C@H]2C[C@H]1C(=O)NC(C)(C)C [nelfinavir] | – | – | – | – | – | – | – | – | time over Calu-3 SARS-CoV-2 EC50 [2]: ~3 h; protection from weight loss and viral replication ([5]; 500 mg/kg PO BID): failed to protect animals from weight loss and viral replication
COc1ccc2cc1Oc1ccc(cc1)C[C@H]1c3cc(c(OC)cc3CCN1C)Oc1c(OC)c(OC)cc3c1[C@H](C2)N(C)CC3 [Hanfangchin A] | >16.08 | > 18.9 µM | 1.18 µM | > 18.9 µM | – | 1.18 µM | −3.61 | – | Cmax [18]: ~500 nM; t1/2 [18]: ~20 h (rats, oral)(31)
COc1cc(-n2cnc3cc(-c4ccc(Cl)cc4)sc3c2=O)ccc1OCCN1CCCC1 [GW-803430] | 11.16 | 18.9 µM | 1.7 µM | – | – | – | – | – | Cmax [18]: ~585 nM; t1/2 [17]: ~11 h (mouse)(38)
N=C(N)c1ccc2cc(OC(=O)c3ccc(N=C(N)N)cc3)ccc2c1 [nafamostat mesylate] | – | – | – | – | – | – | – | active | activity in HeLa-ACE2 infection assay ([1]; text b101-b103): not active; viral replication in ALI-HBECs [12]: inhibited viral replication
